# Marks after values point to notes of the source that are not given here.
# Assays:
# Type in all cases: cell-based, human
# osteopontin = test: Western blot of osteopontin expression after exposure to ASOs; details: MDA-MB231, lipofectamine, 10 μM
# osteonectin = test: Western blot of osteonectin expression after exposure to ASOs; details: for osteonectin expression in relation to untreated control (100%): single exposure, lipofectamine, 10 μM
# [1] = test system: MDA-MB-231 breast cancer cells; test: Clonogenicity assay (colony formation); details: for % Control / Mean colony no.: Experiment II, single treatment; for Mean colony no.: control 705; for inhibition of colony formation (colony growth inhibition): single exposure
# Experimental: For determining the response of MDA-MB-231 colony formation to exposure with antisense oligonucleotides and erucylphospho-NNN-trimethylpropanolamine (ErPC3) the following procedure was used. MDA-MB-231 cells were treated for various periods of time (see below), harvested and counted. Cells (5000) were then transferred into semi-solid medium containing 0.8t RPMI-methylcellulose and 30% FBS. Cells were plated onto 3.5 cm Petri-dishes (1 ml/dish) (NUNC, Wiesbaden, Germany) and usual cell culture conditions (37° C., 5% CO2 in humidified air) were applied. Colony formation (clusters of 30 or more cells) was visualized by staining with 3-[4,5-dimethylthiazol-2-yl]-2,5-diphenyltetrazolium-bromide (MTT; Serva, Heidelberg, Germany) and the resulting dark blue colonies were scored by an inverted microscope after 5-7 days. At least three dishes per treatment protocol were used.
# Pending on the duration of treatment, 1×10^5-3×10^5 cells were transferred onto 6 well plates (Nunc, Wiesbaden, Germany) and grown for 24 h. For transfection, ASO stock solutions were prepared in medium without FBS. According to the protocol of the manufacturer, the respective ASO stock solution was mixed with lipofectamine to allow ASO-liposome complexes to form. To 200 μl medium containing ASO quantities resulting in 10 μM (Western blot and in vivo model) and in 5, 10, or 20 μM (clonogenicity assay) final ASO-concentrations, an equal volume of medium without FBS was added containing 5, 10, or 20 μl lipofectamine, respectively. In addition to the ASO treatment, a NSO control (20 μM final concentration with 20 μl lipofectamine) and a lipofectamine control (20 μl) were used. […] After 12 h the medium was changed, and cells were further grown for 48-72 h. In the case of a sequential combination treatment this first cycle was repeated with the respective combination partner.
# The alkylphosphocholine ErPC3 was synthesized and provided by Prof. H. Eibl (MPI of Biophysical Chemistry, Göttingen, FRG). For treating MDA-MB-231 cells, ErPC3 which was kept as stock solution in ethanol and PBS (10 mM; ratio of diluents 1:1; V:V), was diluted in PBS resulting in final concentrations of 10, 14, and 20 μM. The medium containing ErPC3 was changed after 24 h in all experiments and the cells were further grown for 48-72 h without ErPC3 (for details of sequential exposure see below).
# Sequential combination treatment consisted of two or three treatment cycles. The two cycle treatment started either with the ASO and was followed by ErPC3 or was performed with the reverse sequence. The three cycle treatment started either with two cycles of ASO followed by ErPC3 or an initial exposure to ErPC3 was followed by two cycles with an ASO.
# Colony counts are presented as mean with corresponding standard deviation. For comparison of incidences between treatment groups the x^2 test was used and for comparison of the lesion sizes the Kruskal-Wallis test was applied. P values≦0.05 were considered significant. Predicted theoretical values of combinations were calculated according to the equation: C=a×b/100, where a and b are colony counts in percent of untreated control obtained in response to single agents. For each concentration applied theoretical values were calculated and compared with the real value of the combination. In addition, isobologram and multiple drug effect analysis was examined by a suitable program (CalcuSyn, Biosoft, Ferguson, USA) to study the nature of the interaction observed. For this purpose, the dose-effect curve for each drug alone was determined based on the experimental observations using the median-effect principle; the combination index (CI) for each combination was then calculated according to the following equation:
# CI=(D)1/(Dx)1+(D)2/(Dx)2+(D1)×(D2)/(Dx)1×(Dx)2
# where (D)1 and (D)2 are the doses of drug 1 and drug 2 that have x effect when used in combination and (Dx)1 and (Dx)2 are the doses of drug 1 and drug 2 that have the same x effect when used alone. […]
# [2] = MDA-MB231^F (growing without FBS)
Substance,osteopontin expression in relation to untreated control (100%) (osteopontin; single exposure),osteopontin expression in relation to untreated control (100%) (osteopontin; twofold exposure),osteonectin expression in relation to untreated control (100%) (osteonectin; MDA-MB231) [%],osteonectin expression in relation to untreated control (100%) (osteonectin; [2]) [%],osteonectin expression in relation to untreated control (100%) (osteonectin; MDA-MB435s) [%],also measured
"5′-ACACTAACTTAAAAAACAAA-3′ (antisense ACACTAACTTAAAAAACAAA; all phosphorothioate, sugars by position and methylation of C not given here) [ASO-OPN-5]",43%,80%,,,,
"5′-ATGTGGCCACAGCATCTGGG-3′ (antisense ATGTGGCCACAGCATCTGGG; all phosphorothioate, sugars by position and methylation of C not given here) [ASO-OPN-8]",48%,97%,,,,
"5′-CAAACATTTTAAACATTGGG-3′ (antisense CAAACATTTTAAACATTGGG; all phosphorothioate, sugars by position and methylation of C not given here) [ASO-ON-9]",,,37,21,49,
"5′-CCATCATCAAATTCTCCTAC-3′ (antisense CCATCATCAAATTCTCCTAC; all phosphorothioate, sugars by position and methylation of C not given here) [ASO-ON-2]",,,61,17,64,
"5′-CTCATGGTAGTGAGTTTTCC-3′ (antisense CTCATGGTAGTGAGTTTTCC; all phosphorothioate, sugars by position and methylation of C not given here) [ASO-OPN-1]",25^2)3) %,34^2)3) %,,,,
"5′-GAATCCGGTACTGTGGAAGG-3′ (antisense GAATCCGGTACTGTGGAAGG; all phosphorothioate, sugars by position and methylation of C not given here) [ASO-ON-8]",,,54,38,46,
"5′-GGGGGCTGGGCAGCTGGTGG-3′ (antisense GGGGGCTGGGCAGCTGGTGG; all phosphorothioate, sugars by position and methylation of C not given here) [ASO-ON-3]",,,25,22,29,"decrease of osteonectin (osteonectin; MDA-MB-231 cells): 75%; maximum inhibition of protein expression / suppression of protein level (ON) (osteonectin; MDA-MB-231 cells, Western blot): 75%; % Control ([1]; 5 μM): 92%; Mean colony no. ([1]; 5 μM): 648^6); % Control ([1]; 10 μM): 82%; Mean colony no. ([1]; 10 μM): 576^7); % Control ([1]; 20 μM): 73%; Mean colony no. ([1]; 20 μM): 514; inhibition of colony formation (colony growth inhibition) ([1]; 5 μM): 8%; inhibition of colony formation (colony growth inhibition) ([1]; 10 μM): 14%; inhibition of colony formation (colony growth inhibition) ([1]; 20 μM): 27%; inhibition of colony formation (colony growth inhibition) ([1]; 20 μM, listed as ASO-ON-03, 20 µM): 21%"
5′-GGTCTGCGAAACTTCTTAGA-3′ [ASO-OPN-9],,74%,,,,
"5′-GTGGCCACAGCATCTGGGTA-3′ [ASO-OPN-6] (antisense GTGGCCACAGCATCTGGGTA; all phosphorothioate, sugars by position and methylation of C not given here)",45%,68%,,,,
"5′-GTGGCCACAGCATCTGGGTA-3′ [ASO-OPN-7] (antisense GTGGCCACAGCATCTGGGTA; all phosphorothioate, sugars by position and methylation of C not given here)",31%,69%,,,,
"5′-GTTCAGGTCCTGGGCAACGG-3 (antisense GTTCAGGTCCTGGGCAACGG; all phosphorothioate, sugars by position and methylation of C not given here) [ASO-OPN-3]",32%,38%,,,,
5′-TCAGGTCTGCGAAACTTCTT-3′ [ASO-OPN-10],,86%,,,,
5′-TTCAGGTCCTGGGCAACGGG-3′ [ASO-OPN-2],45%,60%,,,,
"5′-TTGAAGTTTCTCTTGATTAA-3′ (antisense TTGAAGTTTCTCTTGATTAA; all phosphorothioate, sugars by position and methylation of C not given here) [ASO-ON-10]",,,46,35,46,
